From paper PMC6100082, “Pyridine-Ureas as Potential Anticancer Agents: Synthesis and In Vitro Biological Evaluation” (Molecules : A Journal of Synthetic Chemistry and Natural …, 2018)
Like-named read-outs stand apart in the source and are kept apart here.

Key:
Type in all cases: cell-based, human
[1] = system: SN12C; assay: NCI one-dose SRB assay (Renal Cancer); conditions: for Growth Percent: 1.00E-5 Molar; for inhibition at 10 µM: Homo sapiens, read-out: Percentage growth inhibition (GI%)
Procedure: (§1) The structures of all the newly prepared pyridine-ureas 8a–n were submitted to the National Cancer Institute (NCI) Developmental Therapeutic Program. Eight compounds 8b, 8d, 8e, 8i, 8j and 8l–n were selected to be examined for their in vitro growth inhibitory activity. The anticancer assays were carried out according to the protocol of the Drug Evaluation Branch, NCI, Bethesda. The selected pyridine-ureas were tested at one dose primary anticancer assay against a panel of approximately 58 cancer lines (concentration 10^−5 M). The tested human cancer cell lines emerged from nine different cancer subtypes: leukemia, colon, melanoma, ovarian, lung, CNS, renal, breast and prostate cancers. The sulforhodamine B (SRB) protein assay was adopted to estimate the cell viability and growth. The results were reported as mean-graph of the percentage growth of the treated cells, and presented as percentage growth inhibition (GI%) caused by the test compounds (Table 2).
(§2) The anticancer assays were performed in accordance with the protocol of the Drug Evaluation Branch, NCI, Bethesda. A 48 h drug exposure protocol was used and sulforhodamine B (SRB) protein assay was applied to estimate the cell viability and growth, as reported earlier.

[2] = system: UO-31; assay: NCI one-dose SRB assay (Renal Cancer); conditions: for inhibition at 10 µM: Homo sapiens, UO-31, 10 μM, read-out: Percentage growth inhibition (GI%); for Growth Percent: UO-31, 1.00E-5 Molar
Procedure: as §1, §2

[3] = system: A498; assay: NCI one-dose SRB assay (Renal Cancer); conditions: for Growth Percent: A498, 1.00E-5 Molar; for inhibition at 10 µM: Homo sapiens, A498, 10 μM, read-out: Percentage growth inhibition (GI%)
Procedure: as §1, §2

[4] = system: RXF 393; assay: NCI one-dose SRB assay (Renal Cancer); conditions: for inhibition at 10 µM: Homo sapiens, RXF 393, 10 μM, read-out: Percentage growth inhibition (GI%); for Growth Percent: RXF 393, 1.00E-5 Molar
Procedure: as §1, §2

[5] = system: TK-10; assay: NCI one-dose SRB assay (Renal Cancer); conditions: for inhibition at 10 µM: Homo sapiens, TK-10, 10 μM, read-out: Percentage growth inhibition (GI%); for Growth Percent: TK-10, 1.00E-5 Molar
Procedure: as §1, §2

[6] = system: 786-0; assay: NCI one-dose SRB assay (Renal Cancer); conditions: for Growth Percent: 786-0, 1.00E-5 Molar; for inhibition at 10 µM: Homo sapiens, 786-0, 10 μM, read-out: Percentage growth inhibition (GI%)
Procedure: as §1, §2

[7] = system: breast cancer MCF-7 cell line; assay: In vitro anti-proliferative activity, MTT assay; conditions: MCF-7, MTT
Procedure: The in vitro anti-proliferative activity of the newly prepared pyridine-ureas 8a–n was examined against breast cancer MCF-7 cell line. The assay was carried out, as triplicates, utilizing the 3-(4,5-dimethylthiazol-2-yl)-2,5-diphenyltetrazolium bromide (MTT) colorimetric assay as described by T. Mosmann. Doxorubicin and Sorafenib were included in this assay as a reference drug.
MCF-7 (human breast cancer cell line) and WI-38 (human lung fibroblast cell line), were obtained from American Type Culture Collection (Manassas, VA, USA). The cells were propagated in DMEM and supplemented with 10% heat-inactivated FBS (Hyclone), 10 μg/mL of insulin (Manufacturer, Sigma, St. Louis, MO, USA), and 1% penicillin-streptomycin. MTT assay was utilized to examine the in vitro anti-proliferative activity of the newly prepared ureas following the reported procedures. […] The data presented are the mean of at least three separate experiments.

[8] = system: HCT-15; assay: NCI one-dose SRB assay (Colon Cancer); conditions: for Growth Percent: HCT-15, 1.00E-5 Molar; for inhibition at 10 µM: Homo sapiens, HCT-15, 10 μM, read-out: Percentage growth inhibition (GI%)
Procedure: as §1, §2

[9] = system: COLO 205; assay: NCI one-dose SRB assay (Colon Cancer); conditions: for Growth Percent: COLO 205, 1.00E-5 Molar; for inhibition at 10 µM: Homo sapiens, COLO 205, 10 μM, read-out: Percentage growth inhibition (GI%)
Procedure: as §1, §2

[10] = system: HCC-2998; assay: NCI one-dose SRB assay (Colon Cancer); conditions: for Growth Percent: HCC-2998, 1.00E-5 Molar; for inhibition at 10 µM: Homo sapiens, HCC-2998, 10 μM, read-out: Percentage growth inhibition (GI%)
Procedure: as §1, §2

[11] = system: SW-620; assay: NCI one-dose SRB assay (Colon Cancer); conditions: for inhibition at 10 µM: Homo sapiens, SW-620, 10 μM, read-out: Percentage growth inhibition (GI%); for Growth Percent: SW-620, 1.00E-5 Molar
Procedure: as §1, §2

[12] = system: HT29; assay: NCI one-dose SRB assay (Colon Cancer); conditions: for Growth Percent: HT29, 1.00E-5 Molar; for inhibition at 10 µM: Homo sapiens, HT-29, HT29, 10 μM, read-out: Percentage growth inhibition (GI%)
Procedure: as §1, §2

[13] = system: KM12; assay: NCI one-dose SRB assay (Colon Cancer); conditions: for inhibition at 10 µM: Homo sapiens, KM12, 10 μM, read-out: Percentage growth inhibition (GI%); for Growth Percent: KM12, 1.00E-5 Molar
Procedure: as §1, §2

[14] = system: HCT-116; assay: NCI one-dose SRB assay (Colon Cancer); conditions: for Growth Percent: HCT-116, 1.00E-5 Molar; for inhibition at 10 µM: Homo sapiens, HCT-116, 10 μM, read-out: Percentage growth inhibition (GI%)
Procedure: as §1, §2

[15] = system: LOX IMVI; assay: NCI one-dose SRB assay (Melanoma); conditions: for Growth Percent: 1.00E-5 Molar; for inhibition at 10 µM: Homo sapiens, read-out: Percentage growth inhibition (GI%)
Procedure: as §1, §2

[16] = system: MALME-3M; assay: NCI one-dose SRB assay (Melanoma); conditions: for Growth Percent: 1.00E-5 Molar; for inhibition at 10 µM: Homo sapiens, read-out: Percentage growth inhibition (GI%)
Procedure: as §1, §2

[17] = system: UACC-62; assay: NCI one-dose SRB assay (Melanoma); conditions: for inhibition at 10 µM: Homo sapiens, UACC-62, 10 μM, read-out: Percentage growth inhibition (GI%); for Growth Percent: UACC-62, 1.00E-5 Molar
Procedure: as §1, §2

[18] = system: SK-MEL-5; assay: NCI one-dose SRB assay (Melanoma); conditions: for inhibition at 10 µM: Homo sapiens, SK-MEL-5, 10 μM, read-out: Percentage growth inhibition (GI%); for Growth Percent: SK-MEL-5, 1.00E-5 Molar
Procedure: as §1, §2

[19] = system: UACC-257; assay: NCI one-dose SRB assay (Melanoma); conditions: for inhibition at 10 µM: Homo sapiens, UACC-257, 10 μM, read-out: Percentage growth inhibition (GI%); for Growth Percent: UACC-257, 1.00E-5 Molar
Procedure: as §1, §2

[20] = system: M14; assay: NCI one-dose SRB assay (Melanoma); conditions: for inhibition at 10 µM: Homo sapiens, M14, 10 μM, read-out: Percentage growth inhibition (GI%); for Growth Percent: M14, 1.00E-5 Molar
Procedure: as §1, §2

[21] = system: MDA-MB-435; assay: NCI one-dose SRB assay (Melanoma); conditions: for inhibition at 10 µM: Homo sapiens, MDA-MB-435, 10 μM, read-out: Percentage growth inhibition (GI%); for Growth Percent: MDA-MB-435, 1.00E-5 Molar
Procedure: as §1, §2

[22] = system: SK-MEL-2; assay: NCI one-dose SRB assay (Melanoma); conditions: for inhibition at 10 µM: Homo sapiens, SK-MEL-2, 10 μM, read-out: Percentage growth inhibition (GI%); for Growth Percent: SK-MEL-2, 1.00E-5 Molar
Procedure: as §1, §2

[23] = system: SK-MEL-28; assay: NCI one-dose SRB assay (Melanoma); conditions: for inhibition at 10 µM: Homo sapiens, SK-MEL-28, 10 μM, read-out: Percentage growth inhibition (GI%); for Growth Percent: SK-MEL-28, 1.00E-5 Molar
Procedure: as §1, §2

[24] = Homo sapiens, MCF7, 48 h, 48 h of incubation, read-out: IC50 48 h
[25] = Homo sapiens, MCF7, 72 h, 72 h of incubation, read-out: IC50 72 h

With `COc1ccc(-c2ccc(NC(=O)Nc3cccc(C(F)(F)F)c3)c(C)n2)cc1OC` [Compound 8i, 1-(6-(3,4-Dimethoxyphenyl)-2-methylpyridin-3-yl)-3-(3-(trifluoromethyl)phenyl) Urea] the “Growth Percent” value [1] was 79.32%, the inhibition at 10 µM [1] was 21% and the inhibition at 10 µM [2] was 26%. The “Growth Percent” value [2] was 74.95%, the “Growth Percent” value [3] was 61.34% and the inhibition at 10 µM [3] was 39%. The inhibition at 10 µM [4] was 23%, the “Growth Percent” value [4] was 77.55% and the inhibition at 10 µM [5] was 21%. For the same compound, the “Growth Percent” value [5] was 79.75%, the “Growth Percent” value [6] was 69.08% and the inhibition at 10 µM [6] was 31%. The IC50 [7, 24] was 6.19 ± 0.54 µM, the IC50 [7, 25] was 5.8 ± 0.34 µM and the “Growth Percent” value [8] was 48.77%. For the same compound, the inhibition at 10 µM [8] was 52%, the “Growth Percent” value [9] was 88.09% and the inhibition at 10 µM [9] was 12%. The “Growth Percent” value [10] was 84.39%, the inhibition at 10 µM [10] was 16% and the inhibition at 10 µM [11] was under 10%. For the same compound, the “Growth Percent” value [11] was 91.19%, the “Growth Percent” value [12] was 59.96% and the inhibition at 10 µM [12] was 41%. The inhibition at 10 µM [13] was 34%, the “Growth Percent” value [13] was 66.00% and the “Growth Percent” value [14] was 17.63%. For the same compound, the inhibition at 10 µM [14] was 83%, the “Growth Percent” value [15] was 70.96% and the inhibition at 10 µM [15] was 30%. For the same compound, the “Growth Percent” value [16] was 95.26%, the inhibition at 10 µM [16] was under 10% and the inhibition at 10 µM [17] was 19%. The “Growth Percent” value [17] was 81.66%, the inhibition at 10 µM [18] was 42% and the “Growth Percent” value [18] was 58.49%. For the same compound, the inhibition at 10 µM [19] was 19%, the “Growth Percent” value [19] was 81.62% and the inhibition at 10 µM [20] was 69%. For the same compound, the “Growth Percent” value [20] was 31.21%, the inhibition at 10 µM [21] was 27% and the “Growth Percent” value [21] was 73.17%. The inhibition at 10 µM [22] was 27%, the “Growth Percent” value [22] was 73.78% and the inhibition at 10 µM [23] was 25%. The “Growth Percent” value [23] was 75.52%.

`COc1ccc(-c2ccc(NC(=O)Nc3cccc(Cl)c3)c(C)n2)cc1OC` [Compound 8j, 1-(3-Chlorophenyl)-3-(6-(3,4-dimethoxyphenyl)-2-methylpyridin-3-yl) Urea] was tested, and the “Growth Percent” value [1] was 86.84%, the inhibition at 10 µM [1] was 14% and the inhibition at 10 µM [2] was 21%. For the same compound, the “Growth Percent” value [2] was 79.44%, the “Growth Percent” value [3] was 69.84% and the inhibition at 10 µM [3] was 31%. For the same compound, the inhibition at 10 µM [4] was 18%, the “Growth Percent” value [4] was 82.62% and the inhibition at 10 µM [5] was under 10%. The “Growth Percent” value [5] was 99.31%, the “Growth Percent” value [6] was 71.87% and the inhibition at 10 µM [6] was 29%. It also gave an IC50 [7, 24] of 10.1 µM, an IC50 [7, 25] of 26.2 ± 2.17 µM and an IC50 ([7]; 48 h of incubation, read-out: IC50 48 h) of 10.9 ± 1.03 µM. The “Growth Percent” value [8] was 60.62%, the inhibition at 10 µM [8] was 40% and the “Growth Percent” value [9] was 93.06%. For the same compound, the inhibition at 10 µM [9] was under 10%, the “Growth Percent” value [10] was 88.09% and the inhibition at 10 µM [10] was 12%. For the same compound, the inhibition at 10 µM [11] was under 10%, the “Growth Percent” value [11] was 98.24% and the “Growth Percent” value [12] was 74.98%. The inhibition at 10 µM [12] was 26%, the inhibition at 10 µM [13] was 22% and the “Growth Percent” value [13] was 78.93%. For the same compound, the “Growth Percent” value [14] was 63.31%, the inhibition at 10 µM [14] was 37% and the “Growth Percent” value [15] was 80.89%. The inhibition at 10 µM [15] was 20%, the “Growth Percent” value [16] was 98.93% and the inhibition at 10 µM [16] was under 10%. The inhibition at 10 µM [17] was 25%, the “Growth Percent” value [17] was 75.01% and the inhibition at 10 µM [18] was 32%. For the same compound, the “Growth Percent” value [18] was 68.63%, the inhibition at 10 µM [19] was 29% and the “Growth Percent” value [19] was 71.26%. The inhibition at 10 µM [20] was 50%, the “Growth Percent” value [20] was 50.80% and the inhibition at 10 µM [21] was 13%. The “Growth Percent” value [21] was 87.66%, the inhibition at 10 µM [22] was 16% and the “Growth Percent” value [22] was 84.73%. The inhibition at 10 µM [23] was 21% and the “Growth Percent” value [23] was 79.52%.
